# Measured values from patent US6037365A, “Aminobenzamidinosuccinyl lactone derivatives useful as inhibitors of platelet aggregation” (G.D. Searle & Co., priority 1998, dated 2000).
# Structures can show the parent of a compound that is named as a salt. Where two headings read alike, the source gives them in different places.
# Tested on: platelet aggregation in platelet-rich plasma (PRP)
# Experiment: In-Vitro Platelet Aggregation in PRP (ADP-induced)
# Format: cell-based, dogs
# Conditions: dog PRP, ADP 50 μM final concentration, 1 min preincubation at 37° C., aggregation monitored 1 min, unit inferred, read-out: IC50 (dosage at which 50% of platelet aggregation is inhibited)
# Procedure: In-Vitro Platelet Aggregation in PRP
# Healthy male or female dogs were fasted for 8 hours prior to drawing blood; then 30 mL whole blood was collected using a butterfly needle and 30 mL plastic syringe with 3 mL of 0.129M buffered sodium citrate (3.8%). The syringe was rotated carefully as blood was drawn to mix the citrate. Platelet-rich plasma (PRP) was prepared by centrifugation at 975×g for 3.17 minutes at room temperature allowing the centrifuge to coast to a stop without braking. The PRP was removed from the blood with a plastic pipette and placed in a plastic-capped 50 mL Corning conical sterile centrifuge tube which was held at room temperature. Platelet-poor plasma (PPP) was prepared by centrifuging the remaining blood at 2000×g for 15 minutes at room temperature allowing the centrifuge to coast to a stop without braking. The PRP was adjusted with PPP to a count of 2-3×10^8 platelets/mL. The PRP preparation (400 μL) and 50 μL of the compound solution to be tested or saline were preincubated for 1 minute at 37° C. in a BioData aggregometer (BioData, Horsham, Pa.). Adenosine-5'-diphosphate (ADP, 50 μL, 50 μM final concentration) was added to the cuvettes and the aggregation was monitored for 1 minute. All compounds are tested in duplicate. Results are calculated as follows: Percent of control=[(maximal OD minus initial OD of compound) divided by (maximal OD minus initial OD of control saline)]×100. The percent inhibition equals 100-(percent of control).
# The compounds tested and their median inhibitory concentrations (IC50) are recorded in Table 1. The IC50 (dosage at which 50% of platelet aggregation is inhibited) were calculated by linear regression of the dose response curve.
# [1] = Canis lupus familiaris, Platelet
Structure (SMILES),IC50 [nM],IC50 [1] [nM]
"N=C(N)c1ccc(NC(=O)CCC(=O)N[C@@H](CC(=O)O)C(O)c2ccccc2)cc1 (single isomer, unassigned) [Ex 2 Step 6, 3S-[[4-[[4-(aminoiminomethyl)phenyl]amino]-1,4dioxobutyl]amino]-4-hydroxy-phenyl-butanoic acid, trifluoroacetate]",1600,–
"N=C(N)c1ccc(NC(=O)CCC(=O)N[C@@H](CC(=O)O)C(O)c2ccccc2)cc1 (single isomer, unassigned) [Ex 3 Step 2, 3S-[[4-[[4-(aminoiminomethyl)phenyl]amino]-1,4-dioxobutyl]amino]-4-hydroxy-phenylbutanoic acid, trifluoroacetate]",600,–
"N=C(N)c1ccc(NC(=O)CCC(=O)N[C@@H](CC(=O)O)C(O)c2ccc(F)cc2)cc1 (single isomer, unassigned) [Ex 4 Step 5, 3S-[[4-[[4-(aminoiminomethyl)phenyl]amino]-1,4-dioxobutyl]amino]-4-hydroxy-(4-fluoro-phenyl)butanoic acid, trifluoroacetate]",150,–
"N=C(N)c1ccc(NC(=O)CCC(=O)N[C@@H](CC(=O)O)C(O)c2ccc(F)cc2)cc1 (single isomer, unassigned) [Ex 5 Step 2, 3S-[[4-[[4-(aminoiminomethyl)-phenyl]amino]-1,4-]dioxobutyl]amino]-4-hydroxy-(4-fluoro-phenyl)butanoic acid, trifluoroacetate]",800,–
"N=C(N)c1ccc(NC(=O)CCC(=O)N[C@@H](CC(=O)O)C(O)c2ccc3c(c2)OCO3)cc1 (single isomer, unassigned) [Ex 9 Step 6, 3S-[[4-[[4-(aminoiminomethyl)phenyl]amino]-1,4-dioxobutyl]amino]-4-hydroxy-[5-(1,3-benzodioxolyl)]butanoic acid, trifluoroacetate]",350,–
"N=C(N)c1ccc(NC(=O)CCC(=O)N[C@@H](CC(=O)O)C(O)c2ccc3c(c2)OCO3)cc1 (single isomer, unassigned) [Ex 10 Step 2, 3S-[[4-[[4-(aminoiminomethyl)phenyl]amino]-1,4-dioxobutyl]amino-4-hydroxy-4-[5-(1,3-benzodioxolyl)]butanoic acid, trifluoroacetate]",1300,–
"N=C(N)c1ccc(NC(=O)CCC(=O)N[C@H]2CC(=O)OC2c2ccc3c(c2)OCO3)cc1 (single isomer, unassigned; diastereoisomer 1) [Ex 9 Step 5, N-[4-(aminoiminomethyl)phenyl]-N'-[tetrahydro-5-oxo-2-[5-(1,3-benzodioxolyl)]-3S-furanyl]butanediamide, Trifluoroacetate; Diastereoisomer 1]",430,–
"N=C(N)c1ccc(NC(=O)CCC(=O)N[C@H]2CC(=O)OC2c2ccc3c(c2)OCO3)cc1 (single isomer, unassigned; diastereoisomer 2) [Ex 10 Step 1]",3000,–
"N=C(N)c1ccc(NC(=O)CCC(=O)N[C@H]2CC(=O)OC2c2ccc(F)cc2)cc1 (single isomer, unassigned; diastereoisomer a) [Ex 4 Step 4]",–,500
"N=C(N)c1ccc(NC(=O)CCC(=O)N[C@H]2CC(=O)OC2c2ccccc2)cc1 (single isomer, unassigned; isomer a) [Ex 2 Step 5, N-[4-(aminoiminomethyl)phenyl]-N'-(tetrahydro-5-oxo-2-phenyl-3S-furanyl)butanediamide, Trifluoroacetate (Isomer A)]",650,–
"N=C(N)c1ccc(NC(=O)CCC(=O)N[C@H]2CC(=O)OC2c2ccccc2)cc1 (single isomer, unassigned; isomer b) [Ex 3 Step 1, N-[4-(aminoiminomethyl)phenyl]-N'-(tetrahydro-5-oxo-2-phenyl-3S-furanyl)butanediamide, trifluoroacetate (Isomer B)]",2500,–
"N=C(N)c1ccc(NC(=O)CCC(=O)N[C@@H]2COC(=O)C2)cc1 [Ex 1 Step 4, N-[4-(aminoiminomethyl)phenyl]-N'-(tetrahydro-5-oxo-3S-furanyl)butanediamide, Trifluoroacetate]",–,3000
"N=C(N)c1ccc(NC(=O)CCC(=O)N[C@H](CO)CC(=O)O)cc1 [Ex 1 Step 5, 3S-[[4-[[4-aminoiminomethyl)phenyl]amino]-1,4-dioxobutyl]amino]-4-hydroxybutanoic acid, trifluoroacetate]",–,700
"N=C(N)c1ccc(NC(=O)CCC(=O)NC(CC(=O)O)C(O)c2nccs2)cc1 (stereo not drawn) [Ex 6 Step 6, 3S-[[4-[[4-(aminoiminomethyl)phenyl]amino]-1,4-dioxobutyl]amino]-4-hydroxy-2-thiazolylbutanoic acid, trifluoroacetate]",450,–
"C=CC(O)[C@H](CC(=O)O)NC(=O)CCC(=O)Nc1ccc(C(=N)N)cc1 (stereo partly drawn) [Ex 7 Step 5, 3S-[[4-[[4-(aminoiminomethyl)phenyl]amino]-1,4-dioxobutyl]amino]-4-hydroxy-hex-5-enoic acid, trifluoroacetate]",–,290
"N=C(N)c1ccc(NC(=O)CCC(=O)NC(CC(=O)O)c2ccccc2O)cc1 (centres unmarked) [Ex 8 Step 1, 3-[[4-[[4-(aminoiminomethyl)phenyl]-amino]-1,4-dioxobutyl]amino-]3(-hydroxyphenyl)propanoic acid]",–,260
"N=C(N)c1ccc(NC(=O)CCC(=O)NC2CC(=O)Oc3ccccc32)cc1 (centres unmarked) [Ex 8 Step 2, N-[4-(aminoiminomethyl)phenyl]-N'-[3,4-dihydro-2-oxo-2H-1-benzopyran-4-yl]butanediamide, Trifluoroacetate]",–,200
